What follows are compounds tested against T1, OGA (Homo sapiens, UniProt O60502) (assay: OGA cellular assay (ICC detection of O-GlcNAcylated proteins in HEK293 cells inducible for P301L mutant human Tau)). Conditions: HEK293, HEK293 cells inducible for P301L mutant human Tau, maximum = Thiamet G 200 uM.
T1 construct: HEK293 cells inducible for P301L mutant human Tau (isoform 2N4R) were established at Janssen; endogenous in cells; host or cells: HEK293 cells inducible for P301L mutant human Tau (2N4R)
T1 sequence (O60502 1-916): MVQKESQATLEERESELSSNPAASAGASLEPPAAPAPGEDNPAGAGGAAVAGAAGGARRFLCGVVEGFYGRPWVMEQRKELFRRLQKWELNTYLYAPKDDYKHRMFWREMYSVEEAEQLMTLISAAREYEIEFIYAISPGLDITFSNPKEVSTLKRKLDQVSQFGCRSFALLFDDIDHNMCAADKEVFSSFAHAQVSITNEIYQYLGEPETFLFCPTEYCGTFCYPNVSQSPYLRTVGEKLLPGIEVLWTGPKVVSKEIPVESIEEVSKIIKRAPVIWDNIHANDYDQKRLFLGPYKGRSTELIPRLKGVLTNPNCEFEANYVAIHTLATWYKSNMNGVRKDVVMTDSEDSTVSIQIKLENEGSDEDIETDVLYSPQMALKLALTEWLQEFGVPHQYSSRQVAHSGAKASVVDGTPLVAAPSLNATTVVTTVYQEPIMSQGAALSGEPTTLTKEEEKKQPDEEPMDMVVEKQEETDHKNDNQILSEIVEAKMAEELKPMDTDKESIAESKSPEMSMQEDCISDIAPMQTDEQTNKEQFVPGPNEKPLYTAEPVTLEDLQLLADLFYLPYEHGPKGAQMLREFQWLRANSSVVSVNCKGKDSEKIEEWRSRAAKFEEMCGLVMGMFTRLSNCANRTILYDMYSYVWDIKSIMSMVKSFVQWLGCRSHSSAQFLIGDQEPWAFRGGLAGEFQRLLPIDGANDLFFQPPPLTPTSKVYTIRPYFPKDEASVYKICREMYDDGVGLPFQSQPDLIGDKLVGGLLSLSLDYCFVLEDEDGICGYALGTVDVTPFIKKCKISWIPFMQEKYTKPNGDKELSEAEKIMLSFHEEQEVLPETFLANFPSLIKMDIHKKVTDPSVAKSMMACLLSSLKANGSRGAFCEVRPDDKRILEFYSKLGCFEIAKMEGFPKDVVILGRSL
Format: cell-based
Protocol: HEK293 cells inducible for P301L mutant human Tau (isoform 2N4R) were established at Janssen. Thiamet-G was used for both plate validation (high control) and as reference compound (reference EC50 assay validation). OGA inhibition is evaluated through the immunocytochemical (ICC) detection of O-GlcNAcylated proteins by the use of a monoclonal antibody (CTD110.6; Cell Signaling, #9875) detecting 0-GlcNAcylated residues as previously described (Dorfmueller et al. 2010 Chemistry & biology, 17:1250). Inhibition of OGA will result in an increase of O-GlcNAcylated protein levels resulting in an increased signal in the experiment. Cell nuclei are stained with Hoechst to give a cell culture quality control and a rough estimate of immediate compounds toxicity, if any. ICC pictures are imaged with a Perkin Elmer Opera Phenix plate microscope and quantified with the provided software Perkin Elmer Harmony 4.1.
Cells were propagated in DMEM high Glucose (Sigma, #D5796) following standard procedures. 2 days before the cell assay cells are split, counted and seeded in Poly-D-Lysine (PDL) coated 96-wells (Greiner, #655946) plate at a cell density of 12,000 cells per cm^2 (4,000 cells per well) in 100 μl of Assay Medium (Low Glucose medium is used to reduce basal levels of GlcNAcylation) (Park et al. 2014 The Journal of biological chemistry 289:13519). At the day of compound test medium from assay plates was removed and replenished with 90 μl of fresh Assay Medium. 10 μl of compounds at a 10fold final concentration were added to the wells. Plates were centrifuged shortly before incubation in the cell incubator for 6 hours. DMSO concentration was set to 0.2%. Medium is discarded by applying vacuum. For staining of cells medium was removed and cells washed once with 100 μl D-PBS (Sigma, #D8537). From next step onwards unless other stated assay volume was always 50 μl and incubation was performed without agitation and at room temperature. Cells were fixed in 50 μl of a 4% paraformaldehyde (PFA, Alpha aesar, #043368) PBS solution for 15 minutes at room temperature. […] Before analysis samples were washed 2 times manually for 5 minutes in ICC base buffer.
Imaging is performed using Perkin Elmer Phenix Opera using a water 20× objective and recording 9 fields per well. Intensity readout at 488 nm is used as a measure of O-GlcNAcylation level of total proteins in wells. To assess potential toxicity of compounds nuclei were counted using the Hoechst staining. IC50-values are calculated using parametric non-linear regression model fitting. As a maximum inhibition Thiamet G at a 200 uM concentration is present on each plate. In addition, a concentration response of Thiamet G is calculated on each plate.

Row | Structure (SMILES) | Emax [%]
1 | Cc1cc(C)nc(CO[C@@H]2CCN(C(C)c3ccc4sc(C)nc4n3)C2)c1 (stereo partly shown) [Compound 80] | 5
2 | Cc1cc([C@H]2CCCN(C(C)c3nc4nc(C)[nH]c4cc3F)C2)cc(C)n1 (stereo partly shown) [Compound 82] | 39
3 | COc1cc(N[C@H]2CCCN(C(C)c3ccc4sc(C)nc4n3)C2)cc(C)n1 (stereo partly shown) [Compound 83] | 78
4 | Cc1cc(CN[C@H]2CCCN(C(C)c3ccc4sc(C)nc4n3)C2)cc(C)n1 (stereo partly shown) [Compound 84] | 66

Next, values leading:

Row | Emax [%] | Structure (SMILES)
5 | 66 | Cc1cc(O[C@@H]2CCN(C(C)c3cc4nc(C)sc4cc3F)C2)cc(C)n1 (stereo partly shown) [Compound 88]
6 | 64 | Cc1cc(C2CCCN(C(C)c3cc4nc(C)sc4cc3F)C2)cc(C)n1 (stereo not shown) [Compound 89]
7 | 66 | Cc1cc(OC[C@H]2CCCN(C(C)c3nc4nc(C)sc4cc3F)C2)cc(C)n1 (stereo partly shown) [Compound 91]

Same assay, conditions: HEK293 cells inducible for P301L mutant human Tau, 6 hours incubation; read-out: Cellular hOGA; pEC50 (converted)

Row | Structure (SMILES) | EC50 [nM]
8 | Cc1cc(C)nc(CO[C@@H]2CCN(C(C)c3ccc4sc(C)nc4n3)C2)c1 (stereo partly shown) [Compound 80] | > 1000
9 | Cc1cc([C@H]2CCCN(C(C)c3nc4nc(C)[nH]c4cc3F)C2)cc(C)n1 (stereo partly shown) [Compound 82] | > 1000
10 | COc1cc(N[C@H]2CCCN(C(C)c3ccc4sc(C)nc4n3)C2)cc(C)n1 (stereo partly shown) [Compound 83] | 102
11 | Cc1cc(CN[C@H]2CCCN(C(C)c3ccc4sc(C)nc4n3)C2)cc(C)n1 (stereo partly shown) [Compound 84] | 501

Second part, the compound after the results:

Row | EC50 [nM] | Structure (SMILES)
12 | 251 | Cc1cc(O[C@@H]2CCN(C(C)c3cc4nc(C)sc4cc3F)C2)cc(C)n1 (stereo partly shown) [Compound 88]
13 | 15.8 | Cc1cc(C2CCCN(C(C)c3cc4nc(C)sc4cc3F)C2)cc(C)n1 (stereo not shown) [Compound 89]
14 | 7.94 | Cc1cc(OC[C@H]2CCCN(C(C)c3nc4nc(C)sc4cc3F)C2)cc(C)n1 (stereo partly shown) [Compound 91]

The compounds below were run against T2, recombinant human Meningioma Expressed Antigen 5 (MGEA5), also referred to as O-GlcNAcase (OGA) (Homo sapiens, UniProt O60502) (assay: OGA biochemical assay (inhibition of FM-GlcNAc hydrolysis, fluorescence)). Conditions: FM-GlcNAc substrate, 6 h at room temperature, read-out: Enzymatic hOGA, pIC50 (converted).
T2 construct: Full length OGA enzyme was purchased at OriGene (cat #TP322411); purchased OriGene TP322411
T2 sequence (O60502 1-916): T1 sequence (O60502 1-916)
Procedure, shortened: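 Full-length OGA (2 nM) pre-incubated 60 min at room temperature with compound, then FM-GlcNAc (100 uM final) hydrolysed 6 h at room temperature in 200 mM citrate/phosphate pH 7.2 with 0.005% Tween-20. Stopped with carbonate pH 11.0; fluorescein read at ex 485/em 538 nm. IC50 and Hill coefficient from curve fit between no-inhibitor and saturating-standard controls.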

Row | Structure (SMILES) | IC50 [nM]
15 | Cc1cc(C)nc(CO[C@@H]2CCN(C(C)c3ccc4sc(C)nc4n3)C2)c1 (stereo partly shown) [Compound 80] | 2000
16 | Cc1cc([C@H]2CCCN(C(C)c3nc4nc(C)[nH]c4cc3F)C2)cc(C)n1 (stereo partly shown) [Compound 82] | 126
17 | COc1cc(N[C@H]2CCCN(C(C)c3ccc4sc(C)nc4n3)C2)cc(C)n1 (stereo partly shown) [Compound 83] | 10
18 | Cc1cc(CN[C@H]2CCCN(C(C)c3ccc4sc(C)nc4n3)C2)cc(C)n1 (stereo partly shown) [Compound 84] | 25.1

Results, then the compound that gave them:

Row | IC50 [nM] | Structure (SMILES)
19 | 3.16 | Cc1cc(O[C@@H]2CCN(C(C)c3cc4nc(C)sc4cc3F)C2)cc(C)n1 (stereo partly shown) [Compound 88]
20 | 6.31 | Cc1cc(C2CCCN(C(C)c3cc4nc(C)sc4cc3F)C2)cc(C)n1 (stereo not shown) [Compound 89]
21 | 3.98 | Cc1cc(OC[C@H]2CCCN(C(C)c3nc4nc(C)sc4cc3F)C2)cc(C)n1 (stereo partly shown) [Compound 91]

Same assay, conditions: FM-GlcNAc substrate, maximal effect, read-out: Enzymatic Emax (%)

Row | Structure (SMILES) | Emax [%]
22 | Cc1cc(C)nc(CO[C@@H]2CCN(C(C)c3ccc4sc(C)nc4n3)C2)c1 (stereo partly shown) [Compound 80] | 85
23 | Cc1cc([C@H]2CCCN(C(C)c3nc4nc(C)[nH]c4cc3F)C2)cc(C)n1 (stereo partly shown) [Compound 82] | 97
24 | COc1cc(N[C@H]2CCCN(C(C)c3ccc4sc(C)nc4n3)C2)cc(C)n1 (stereo partly shown) [Compound 83] | 96
25 | Cc1cc(CN[C@H]2CCCN(C(C)c3ccc4sc(C)nc4n3)C2)cc(C)n1 (stereo partly shown) [Compound 84] | 98

Continued, values first:

Row | Emax [%] | Structure (SMILES)
26 | 99 | Cc1cc(O[C@@H]2CCN(C(C)c3cc4nc(C)sc4cc3F)C2)cc(C)n1 (stereo partly shown) [Compound 88]
27 | 102 | Cc1cc(C2CCCN(C(C)c3cc4nc(C)sc4cc3F)C2)cc(C)n1 (stereo not shown) [Compound 89]
28 | 101 | Cc1cc(OC[C@H]2CCCN(C(C)c3nc4nc(C)sc4cc3F)C2)cc(C)n1 (stereo partly shown) [Compound 91]
